Data taken from patent US8784782B2 (Senomyx, Inc., priority 2005, dated 2014).

Tested on: un-induced I-17 cells
Assay: FLIPR assay on un-induced I-17 cells (receptor dependency control)
Format: cell-based
Conditions: un-induced I-17 cells (no mifepristone)
Method: In order to determine the dependency of hT1R1/hT1R3 for the cell response to different stimuli, selected compounds were subjected to a similar analysis on I-17 cells that had not been induced for receptor expression with mifepristone (designated as un-induced I-17 cells). […] Compounds were presented to un-induced umami cells at […]—or three times the maximum stimulation used in the dose-response analysis.

N[C@@H](CCC(=O)O)C(=O)[O-].[Na+] [monosodium glutamate]
functional response in the FLIPR assay: do not show any functional response
